Data from patent EP0804147B1, “DERMATO-COSMETOLOGIC COMPOSITION” (PIERRE FABRE DERMO-COSMETIQUE, priority 1994, dated 1995).
Where two headings read alike, the source gives them in different places.

Tests used:
[1] = Water retention capacity of skin flaps (stratum corneum samples soaked in active solution, dried, rehydrated; desorbed water quantified by GC-MS); conditions: 90% d'humidité relative
Source text: Des échantillons de stratum corneum sont immergés pendant 24 heures dans une solution de l'actif à analyser. Ils sont ensuite séchés pendant 24 heures dans un dessicateur sur silicagel puis réhydratés pendant 48 heures dans une enceinte à 90% d'humidité relative.
Ces échantillons sont analysés après l'étape de séchage et après l'étape de réhydratation. La technique utilisée est la chromatographie en phase gazeuse couplée à la spectrométrie de masse.
Les échantillons de peau pesés sont placés dans un four chauffé à 100°C, la vapeur d'eau désorbée est entrainée par un gaz de balayage sec vers le chromatographe où elle sera détectée.
Un spectre est obtenu en sortie de l'appareil. L'eau désorbée est quantifiée par la mesure de l'aire du pic. Le spectromètre de masse couplé à la CPG permet de s'assurer que le composé désorbé et quantifié est bien de l'eau.
Cette technique allie donc une analyse qualitative à une analyse quantitative. Les résultats sont donnés en pourcentage d'eau retenue et permettent donc d'évaluer le pouvoir hygroscopique des produits.
Les résultats sont présentés sur la figure 1.

[2] = for effet hydratant: topical on forearm, 0-6 h
Source text: La spectroscopie infrarouge in vivo est une technique non invasive, rapide et de grande sensibilité. Les molécules absorbent toutes différemment le rayonnement infrarouge. C'est en analysant leur spectre d'absorption que l'on peut retrouver la structure de la molécule.
En fonction de l'application de divers traitements, des liaisons entre l'eau apportée et la peau se créent et entraînent des modifications de certaines bandes d'absorption.
Ainsi seront analysés sur le spectre les pics suivants : • le pic d'absorption dû à l'élongation de la liaison OH de l'eau à 2100 cm-1. Les variations d'intensité de ce pic ne sont pas visibles à l'oeil nu mais elles sont significatives et donc enregistrées. • le pic d'absorption dû à l'élongation des liaisons amide I à 1640 cm-1. L'élongation de cette liaison se trouve modifiée lorsque des liaisons hydrogènes se créent par apport d'eau. • le pic d'absorption dû à l'élongation des liaisons amide II à 1540 cm-1. Ce pic n'est influencé par la présence d'eau que de façon négligeable; il est donc utilisé pour pondérer les deux pics précédents.
Les préparations cosmétiques à tester sont appliquées sur une zone délimitée de l'avant-bras. Une zone non traitée est conservée comme témoin.
Pour chaque spectre obtenu sont mesurés les rapports suivants : (amideI)/(amideII)appelé facteur d'hydratation (ou MF); (eau)/(amideII) [formula]
Ces rapports sont calculés aux temps 0, 1, 2, ..., 6 heures et les courbes suivantes sont tracées : MF témoin(t) - MF bras traité(t) = f(t) avec t, représentant le temps en heures.; (eau)/(amideII)témoin(t) -(eau)/(amideII)bras traité(t) = f(t) [formula]
L'allure de ces courbes est ensuite comparée. En effet, le pic des amides I pourrait être directement influencé par le produit appliqué alors que le pic à 2100 cm-1 n'est influencé que par l'eau.
Si les deux courbes obtenues évoluent dans le même sens, on peut considérer que la variation enregistrée rend bien compte de la fixation de l'eau sur la peau. Dans le cas contraire, il faut émettre des réserves sur les conclusions à apporter.
On teste par cette technique des crèmes contenant 5% et 13% de glycolate de guanidine, de formules suivantes (les pourcentages sont exprimés en p/p) :
Les effets sont comparés avec ceux de compositions contenant : • 15% glycérol • 5% glycérol • 13% lactate d'ammonium • 5% lactate d'ammonium.

[3] = tested on: contaminations microbiennes; conditions: cream containing 13%, no other preservative
[4] = tested on: Corynébactéries; conditions: bacteria involved in body odour (armpits)
[5] = compared with lactate d'ammonium

| Compound | eau retenue ([1]; skin treated with 15% solution) [%] | eau retenue ([1]; skin treated with 13% solution) [%] | effet hydratant ([2]; cream containing 5% (formula B), figure 3) | durée de la différence d'hydratation ([2]; cream containing 5% vs 5% glycérol cream) [heures] | effet hydratant ([2]; cream containing 13% (formula A), figure 2) | durée de la différence d'hydratation ([2]; cream containing 13% vs placebo and 13% lactate d'ammonium cream) [heures] | protection contre les contaminations microbiennes (conservateur) [3] | activité bactéricide [4] | propriétés kératorégulatrices [5] |
| --- | --- | --- | --- | --- | --- | --- | --- | --- | --- |
| OCC(O)CO [glycérol] | 125 | – | – | – | – | – | – | – | – |
| CC(O)C(=O)O (stereo not shown) [lactate d'ammonium] | – | 135 | – | – | – | – | – | – | – |
| glycolate de guanidine | – | 300 | beaucoup plus hydratante que celle contenant 5% de glycérol | > 6 | beaucoup plus hydratante que le placebo et que la crème contenant 13% de lactate d'ammonium | > 6 | s'auto-protège contre les contaminations microbiennes | actif sur des bactéries impliquées dans la formation d'odeurs corporelles | supérieures à celles du lactate d'ammonium |
